Structures can show the parent of a compound that is named as a salt.
Test: collision cross section in nitrogen (drift tube, single-field); higher = larger gas-phase ion size
[1] = ion type: [M-H], ion source: ESI, ion mode: Negative
[2] = ion type: [M+H], ion source: APCI, ion mode: Positive
[3] = ion type: [M+H], ion source: ESI, ion mode: Positive
[4] = ion type: [M+Na], ion source: ESI, ion mode: Positive
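Further: chemical standards at 10 µM analysed by drift tube IMS-QTOF MS in about 3.95 torr nitrogen, mean of duplicate injections differing ≤1%, mass error below 10 ppm.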

## O=C(O)C1=NN(c2ccc(S(=O)(=O)O)cc2)C(=O)C1
[1]
  collision cross section in nitrogen: 162.5 Å²

## C[N+](C)(C)Cc1ccccc1 [Benzyltrimethylammonium hydroxide]
Ion source: ESI, ion mode: Positive, ion type: [M]+ (permanent cation)
  collision cross section in nitrogen: 131.3 Å²

## CCCC1COC(Cn2cncn2)(c2ccc(Cl)cc2Cl)O1 (centres undefined) [Propiconazole]
[2]
  collision cross section in nitrogen: 180.9 Å²
[3]
  collision cross section in nitrogen: 179.8 Å²

## [O-][Cl+3]([O-])([O-])O [Potassium perchlorate]
[1]
  collision cross section in nitrogen: 105.2 Å²

## CN(C)Cc1ccccc1O [2-((Dimethylamino)methyl)phenol]
[3]
  collision cross section in nitrogen: 162.2 Å²

## O=S(=O)(O)c1cc(Nc2nc(Nc3ccccc3)nc(N(CCO)CCO)n2)ccc1C=Cc1ccc(Nc2nc(Nc3ccccc3)nc(N(CCO)CCO)n2)cc1S(=O)(=O)O [C.I. Fluorescent Brightener 28, disodium salt]
[3]
  collision cross section in nitrogen: 307.5 Å²
[1]
  collision cross section in nitrogen: 282.8 Å²

## CCN(CCN)c1cccc(C)c1 [N-Ethyl-N-(3-methylphenyl)ethane-1,2-diamine]
[2]
  collision cross section in nitrogen: 139.5 Å²
[3]
  collision cross section in nitrogen: 140.5 Å²

## N=c1ccn2c(n1)O[C@H]1[C@H](O)[C@@H](CO)O[C@H]12 [Cyclocytidine]
[2]
  collision cross section in nitrogen: 143.1 Å²
[3]
  collision cross section in nitrogen: 143.5 Å²
[4]
  collision cross section in nitrogen: 156.7 Å²

## CCCCC(C#N)(Cn1cncn1)c1ccc(Cl)cc1 (centres undefined) [Myclobutanil]
[3]
  collision cross section in nitrogen: 174.7 Å²

## CC(=O)S[C@H](C(=O)N[C@H]1Cc2ccccc2[C@H]2CCC[C@@H](C(=O)O)N2C1=O)C(C)C [Ilepatril]
[2]
  collision cross section in nitrogen: 195.4 Å²
[3]
  collision cross section in nitrogen: 194.9 Å²
[4]
  collision cross section in nitrogen: 198.7 Å²
[1]
  collision cross section in nitrogen: 193.7 Å²

## NC(=O)c1cccnc1 [Niacinamide]
[2]
  collision cross section in nitrogen: 125.7 Å²

## CC(C)c1ccccc1O [2-Isopropylphenol]
[1]
  collision cross section in nitrogen: 129.3 Å²

## CCc1cc(C)cc(CC)c1-c1c(OC(=O)C(C)(C)C)n2n(c1=O)CCOCC2 [Pinoxaden]
[2]
  collision cross section in nitrogen: 196.5 Å²
[3]
  collision cross section in nitrogen: 196.6 Å²
[4]
  collision cross section in nitrogen: 202.8 Å²

## CCNc1nc(Cl)nc(NC(C)(C)C)n1 [Terbutylazine]
[2]
  collision cross section in nitrogen: 153.8 Å²
[3]
  collision cross section in nitrogen: 153.8 Å²

## Cc1ccc(S(=O)(=O)O)cc1 [4-Methylbenzenesulfonic acid hydrate]
[1]
  collision cross section in nitrogen: 134.4 Å²

## CCCCC1(COC(=O)CCC(=O)O)C(=O)N(c2ccccc2)N(c2ccccc2)C1=O [Suxibuzone]
[2]
  collision cross section in nitrogen: 201.3 Å²
[3]
  collision cross section in nitrogen: 200.8 Å²
[4]
  collision cross section in nitrogen: 204.5 Å²

## CC[C@H](C)C(=O)O[C@H]1C[C@@H](C)C=C2C=C[C@H](C)[C@H](CC[C@@H]3C[C@@H](O)CC(=O)O3)[C@H]21 [Lovastatin]
[4]
  collision cross section in nitrogen: 203.9 Å²

## Cc1cccc2sc3nncn3c12 [2,7,8,9-Tricyclazole]
[2]
  collision cross section in nitrogen: 136.3 Å²
[3]
  collision cross section in nitrogen: 134 Å²
[4]
  collision cross section in nitrogen: 153.5 Å²

## c1ccc2cnccc2c1 [Isoquinoline]
[2]
  collision cross section in nitrogen: 122.3 Å²

## COc1ccc2c(c1)[C@]13CCCC[C@@H]1[C@H](C2)N(C)CC3 [Dextromethorphan hydrobromide]
[2]
  collision cross section in nitrogen: 166.1 Å²
[3]
  collision cross section in nitrogen: 166.7 Å²

## CCCCOCCOC(=O)COc1ccc(Cl)cc1Cl [2,4-D-Butotyl]
[4]
  collision cross section in nitrogen: 177 Å²

## Cc1c(C(=O)O)c(O)cc2c1C(=O)c1c(O)c([C@@H]3O[C@H](CO)[C@@H](O)[C@H](O)[C@H]3O)c(O)c(O)c1C2=O [Carminic acid]
[3]
  collision cross section in nitrogen: 209.1 Å²
[4]
  collision cross section in nitrogen: 217.8 Å²
[1]
  collision cross section in nitrogen: 208.9 Å²

## CC1(C)O[C@@H]2C[C@H]3[C@@H]4C[C@H](F)C5=CC(=O)C=C[C@]5(C)[C@@]4(F)[C@@H](O)C[C@]3(C)[C@]2(C(=O)CO)O1 [Fluocinolone acetonide]
[4]
  collision cross section in nitrogen: 226.8 Å²
[1]
  collision cross section in nitrogen: 194.2 Å²

## Nc1ccc(Cl)c([N+](=O)[O-])c1 [4-Chloro-3-nitroaniline]
[1]
  collision cross section in nitrogen: 126.1 Å²

## O=C(c1ccccc1)c1ccc(O)c(O)c1O [2,3,4-Trihydroxbenzophenone]
[1]
  collision cross section in nitrogen: 151.1 Å²

## CC(C)(c1ccc(O)cc1)c1ccc(C(C)(C)c2ccc(O)cc2)cc1 [Bisphenol P]
[1]
  collision cross section in nitrogen: 180.1 Å²

## N#Cc1c[nH]cc1-c1cccc2c1OC(F)(F)O2 [Fludioxonil]
[1]
  collision cross section in nitrogen: 146.3 Å²

## CC(C)C1(C)N=C(c2nc3ccccc3cc2C(=O)O)NC1=O (centres undefined) [Imazaquin]
[2]
  collision cross section in nitrogen: 171.7 Å²
[3]
  collision cross section in nitrogen: 171.7 Å²
[4]
  collision cross section in nitrogen: 188.4 Å²
[1]
  collision cross section in nitrogen: 176.9 Å²

## C[C@]12CC[C@@H]3c4ccc(O)cc4CC[C@H]3[C@@H]1CC[C@@H]2OC(=O)CCC1CCCC1 [Estradiol cypionate]
[1]
  collision cross section in nitrogen: 220.4 Å²

## CCOP(=O)(OCC)Oc1nc(Cl)c(Cl)cc1Cl [Chlorpyrifos oxon]
[2]
  collision cross section in nitrogen: 162.3 Å²
[3]
  collision cross section in nitrogen: 162.7 Å²
[4]
  collision cross section in nitrogen: 171 Å²

## Clc1ccc(COC(Cn2ccnc2)c2ccc(Cl)cc2Cl)cc1 (centres undefined) [Econazole nitrate]
[2]
  collision cross section in nitrogen: 185.8 Å²
[3]
  collision cross section in nitrogen: 185.7 Å²
[4]
  collision cross section in nitrogen: 193.2 Å²

## ClC(c1ccccc1)(c1ccccc1)c1ccccc1 [Trityl chloride]
[2]
  collision cross section in nitrogen: 162.5 Å²

## COP(N)(=S)Oc1ccccc1C(=O)OC(C)C (centres undefined) [Isocarbophos]
[4]
  collision cross section in nitrogen: 168.6 Å²

## COc1ccc(OC)c(C(O)CNC(=O)CN)c1 (centres undefined) [Midodrine hydrochloride]
[4]
  collision cross section in nitrogen: 164.3 Å²
[1]
  collision cross section in nitrogen: 159.5 Å²

## C[C@]12C=CC(=O)C=C1CC[C@@H]1[C@@H]2[C@@H](O)C[C@@]2(C)[C@H]1CC[C@]2(O)C(=O)CO [Prednisolone]
[2]
  collision cross section in nitrogen: 186.4 Å²
[4]
  collision cross section in nitrogen: 210.8 Å²

## Cc1ncsc1CCO [Thiamine thiozole]
[2]
  collision cross section in nitrogen: 126.1 Å²
[3]
  collision cross section in nitrogen: 126.5 Å²

## CCOc1ccc(NC(=O)CC(C)O)cc1 (centres undefined) [3-Hydroxy-4-butyrophenetidide]
[2]
  collision cross section in nitrogen: 155.5 Å²
[3]
  collision cross section in nitrogen: 155.6 Å²
[4]
  collision cross section in nitrogen: 169.5 Å²

## Nc1ccccc1[N+](=O)[O-] [2-Nitrobenzenamine]
[1]
  collision cross section in nitrogen: 121.6 Å²

## O=C(O)c1cccnc1 [Nicotinic acid]
[3]
  collision cross section in nitrogen: 124.2 Å²

## CCCCC(CC)COC(=O)c1ccc(C(=O)OCC(CC)CCCC)c(C(=O)OCC(CC)CCCC)c1 (centres undefined) [Tris(2-ethylhexyl) trimellitate]
[3]
  collision cross section in nitrogen: 256.5 Å²
[4]
  collision cross section in nitrogen: 264.6 Å²

## O=C(O)c1cc[c]([Hg][Cl])cc1 [4-Chloromercuribenzoic acid]
[1]
  collision cross section in nitrogen: 143 Å²

## O=S(=O)(O)c1cc(O)c2ccc(Nc3ccccc3)cc2c1 [4-Hydroxy-7-(phenylamino)naphthalene-2-sulfonic acid]
[1]
  collision cross section in nitrogen: 180.6 Å²

## O=C1N=CC(Cl)=CC1Cl (centres undefined) [3,5-Dichloro-2-pyridone]
[1]
  collision cross section in nitrogen: 123.4 Å²

## C[C@@H](Oc1ccc(CNC(=O)c2cccnc2Oc2ccc3c(c2)OCO3)c(F)c1)C(=O)O
[3]
  collision cross section in nitrogen: 196.3 Å²
[4]
  collision cross section in nitrogen: 197.1 Å²
[1]
  collision cross section in nitrogen: 202.7 Å²

## Oc1c(Cl)cc(Cl)c(Cl)c1Cl [2,3,4,6-Tetrachlorophenol]
[1]
  collision cross section in nitrogen: 133.8 Å²

## CC(C)(C)c1cc(CCC(=O)OCC(COC(=O)CCc2cc(C(C)(C)C)c(O)c(C(C)(C)C)c2)(COC(=O)CCc2cc(C(C)(C)C)c(O)c(C(C)(C)C)c2)COC(=O)CCc2cc(C(C)(C)C)c(O)c(C(C)(C)C)c2)cc(C(C)(C)C)c1O [Irganox 1010]
[4]
  collision cross section in nitrogen: 354.9 Å²
Ion type: [M+], ion source: APCI, ion mode: Positive
  collision cross section in nitrogen: 355.6 Å²
[1]
  collision cross section in nitrogen: 354.9 Å²

## Cc1ccc(C(C)C)cc1O [Isopropyl-o-cresol]
[1]
  collision cross section in nitrogen: 136.9 Å²

## CCCCC(CC)COC(=O)/C=C\C(=O)OCC(CC)CCCC (centres undefined) [Bis(2-ethylhexyl) maleate]
[4]
  collision cross section in nitrogen: 207.2 Å²

## O=C1c2cccc(O)c2C(=O)c2c(O)cc(CO)cc21 [Aloe-emodin]
[1]
  collision cross section in nitrogen: 157.1 Å²

## Cc1cc(N=Nc2c(O)ccc3ccccc23)c(S(=O)(=O)O)cc1Cl [C.I. Pigment Red 53]
[1]
  collision cross section in nitrogen: 187.2 Å²

## FC(F)C(F)(F)OCC(Cn1cncn1)c1ccc(Cl)cc1Cl (centres undefined) [Tetraconazole]
[2]
  collision cross section in nitrogen: 177.6 Å²
[3]
  collision cross section in nitrogen: 176.6 Å²

## Oc1c(Cl)cc(Cl)c(Cl)c1Cc1c(O)c(Cl)cc(Cl)c1Cl [Hexachlorophene]
[1]
  collision cross section in nitrogen: 174.4 Å²
